# Patent US11576918B2, “Pharmaceutical composition and extract of Dendrobii Caulis with eye care effect and uses of preparing the same thereof” (AMX Pharma Inc., priority 2019, dated 2023)
# Like-named read-outs stand apart in the source and are kept apart here.
# Key:
# [1] = tested on: ARPE-19 cells; type: cell-based; parameters: protective activity / toxic reaction: dose or concentration left out as unconfirmed; conditions: for protection effect (cell viability): 500 μM hydrogen peroxide, 24 h pre-treatment
# Procedure: (§1) The present experiment took human retinal cell (ARPE-19) and rat retinal ganglion cells (RGC-5) as model cell lines. ARPE-19 cells were cultured in DMEM-F12 medium containing 10% fetal bovine serum (FBS), 0.2% sodium bicarbonate and antibiotics (penicillin 100 units/ml, streptomycin 100 μg/ml); RGC-5 were cultured in DMEM medium containing 10% fetal bovine serum (FBS) and antibiotics (penicillin 100 units/ml, streptomycin 100 μg/ml).
# (§2) ARPE-19 and RGC-5 cells were seeded in 96-well plate. After 1 day, the cells were pre-treated with different concentrations of Dendrobii Caulis extract (A or A-2) or compounds 1-4 for 24 hours, and then exposed to (1) hydrogen peroxide (H2O2; 500 μM)) or (2) hypoxic environment or (3) ultraviolet (UV) irradiation (30 μJ/cm^2; three consecutive shots, for 60 seconds each with 60 second intervals, to trigger cell death. After 24-h culture, medium was removed and replaced with 10% precooled trichloroacetic acid (TCA) to fix cells at 4° C. for 1 h, then washed with ddH2O and dried. Next, 0.4% SRB 100 μl (w/v, in 1% acetic acid) was added to each well to stain the cells for 60 minutes, then washed several times with 1% acetic acid and dried plate.—The SRB in cells was dissolved in 150 μl of 10 mM Tris-HCl and measured the absorbance at 540 nm in an ELISA reader. The survival rate was calculated by comparing each treatment with the untreated control group as the 100% survival rate.
# [2] = tested on: RGC-5 cells; type: cell-based; parameters: toxic reaction / protective activity: dose or concentration left out as unconfirmed; conditions: for protection effect (cell viability): 500 μM hydrogen peroxide, 24 h pre-treatment
# Procedure: as §1, §2
# [3] = tested on: zebrafish cataract; assay: UVC-induced zebrafish cataract test; type: in vivo
# Procedure: Zebrafish were randomly grouped (12 for each group) into blank control group, UVC irradiation group (300 μJ/cm^2) and UVC irradiation+treating group with A-2 at 0.495, 0.99, and 4.95 mg/ml three dosages or with compound 1 at 0.1 and 1.0 mM two dosages. The zebrafish were pre-fed with A-2 or compound 1 for one week, then subjected to UVC irradiation to observe the crystal change of the zebrafish daily. Before irradiating with UVC, the zebrafish is under anesthesia to expose only its eye to UVC (300 μJ/cm^2) for about 3 minutes, consecutively holding for seven days. The zebrafish eyes were observed every day. The severity of zebrafish cataract was scored from 1 to 3, depending on the clear level of the crystal body, in which the higher score represents the more turbidity of the crystal body. The scores are then plotted.
# [4] = tested on: retinal damage; conditions: absence of oxygen; recent study; cited from earlier work
# [5] = tested on: optic nerve cell strains; conditions: some studies; cited from earlier work
# [6] = 1-10 mM, hydrogen peroxide, hypoxia or UV treatment
# [7] = hydrogen peroxide, hypoxia or UV irradiation
# [8] = hydrogen peroxide, hypoxia or UV treatment
# [9] = hydrogen peroxide and ultraviolet light
structure (smiles),measurement,setting,value
"CC(C)(O)[C@H]1C2C(=O)OC1[C@@H](O)[C@]1(C)C2CC[C@H]1COC1OC(CO)C(O)C(O)C1O (stereo partly drawn) [compound 1, 2β, 3β, 11, 12-tetrahydroxypicrotoxan-3(15)-olide 11-O-β-D-glucopyranoside]",toxic reaction,[1],no toxic reaction
same,protection effect (cell viability),[1]; hypoxia or UV irradiation,can protect
same,concentration dependence of protective activity,[1]; [6],concentration-dependent protective activity
same,protective effect compared with lutein,[1]; [7],superior to lutein
same,protective activity,[1]; [8],more than 80%
same,toxic reaction,[2],no toxic reaction
same,protection effect (cell viability),[2]; hypoxia or UV irradiation,can protect
same,concentration dependence of protective activity,[2]; [6],concentration-dependent protective activity
same,protective effect compared with lutein,[2]; [7],superior to lutein
same,protective activity,[2]; [8],more than 80%
same,occurrence of UV-induced cataract,"[3]; 1 mM, fourth day",almost no cataract occurred
same,occurrence of UV-induced cataract,"[3]; 0.1 and 1.0 mM, pre-fed one week",can significantly reduce the occurrence of zebrafish cataract
"CC(C)(O)[C@H]1C2C(=O)OC1[C@@H](O)[C@]1(C)C2CC[C@H]1CO (stereo partly drawn) [compound 2, 2β, 3β, 11, 12-tetrahydroxypicrotoxan-3 (15)-olide]",protection (cell viability),[1]; [9],can also protect
same,protective effect compared with lutein,[1]; [9],comparable to lutein
same,protection (cell viability),[2]; [9],can also protect
same,protective effect compared with lutein,[2]; [9],comparable to lutein
"CC(C)[C@@H]1[C@H]2OC(=O)[C@@H]1[C@@H]1CC[C@@H]3CN(C)[C@H]2[C@@]31C [compound 3, dendrobine]",protection effect (cell viability),[1]; hypoxia or UV irradiation,does not show enough protective activity
same,protection effect (cell viability),[2]; hypoxia or UV irradiation,does not show enough protective activity
COc1cc(CCc2cc(OC)c(O)c(OC)c2)ccc1O [moscatilin],protection of retinal damage,[4],can protect retinal damage in the absence of oxygen
same,toxicity to optic nerve cell strains,[5],toxic
